Measurements from ChEMBL document CHEMBL3044684, “Synthesis and cytotoxic activity of novel benzopyrano[3,2-c]chromene-6,8-dione derivatives” (Med Chem Res, 2011).

Tests used:
Type in all cases: functional, cell-based
MCF7 = test: Cytotoxicity against Homo sapiens (human) MCF7 cells after 96 hr by MTT assay; details: MCF7, 96 h
HeLa = test: Cytotoxicity against Homo sapiens (human) HeLa cells after 96 hr by MTT assay
[1] = Cytotoxicity against Homo sapiens (human) LS180 cells after 96 hr by MTT assay; details: LS180, 96 h
Raji = test: Cytotoxicity against Homo sapiens (human) Raji cells after 96 hr by MTT assay

Compound	IC16 (MCF7) [µM]	IC50 (MCF7) [µM]	IC16 (HeLa) [µM]	IC50 (HeLa) [µM]	IC16 [1] [µM]	IC50 [1] [µM]	IC16 (Raji) [µM]	IC50 (Raji) [µM]
O=C1CCCC2=C1C(c1cccc(Br)c1)c1c(c3ccccc3oc1=O)O2 (stereo not drawn)	> 50	> 50	21.9	61.6	35.1	83.8	11.3	49.3
O=C1CCCC2=C1C(c1ccc(Br)cc1)c1c(c3ccccc3oc1=O)O2 (stereo not drawn)	15.7	49.3	> 100	> 100	> 100	> 100	22.4	82.4
O=C1CCCC2=C1C(c1ccccc1Cl)c1c(c3ccccc3oc1=O)O2 (stereo not drawn)	> 25	> 25	> 25	> 25	> 25	> 25	> 25	> 25
O=C1CCCC2=C1C(c1cccc(Cl)c1)c1c(c3ccccc3oc1=O)O2 (stereo not drawn)	> 50	> 50	> 50	> 50	> 50	> 50	23.9	> 50
O=C1CCCC2=C1C(c1ccc(Cl)cc1)c1c(c3ccccc3oc1=O)O2 (stereo not drawn)	54.7	> 100	17.9	55.8	> 100	> 100	59	> 100
COc1ccccc1C1C2=C(CCCC2=O)Oc2c1c(=O)oc1ccccc21 (stereo not drawn)	> 100	> 100	37.6	74.3	52.1	> 100	30.3	> 100
COc1cccc(C2C3=C(CCCC3=O)Oc3c2c(=O)oc2ccccc32)c1 (stereo not drawn)	22.2	58.6	25.3	89.9	48.9	99.7	13.1	49.2
COc1ccc(C2C3=C(CCCC3=O)Oc3c2c(=O)oc2ccccc32)cc1 (stereo not drawn)	35.9	76.3	48.7	97.9	100	> 100	33.1	> 100
Cc1ccccc1C1C2=C(CCCC2=O)Oc2c1c(=O)oc1ccccc21 (stereo not drawn)	30.9	> 100	42.9	> 100	53.8	> 100	26.4	79.7
Cc1cccc(C2C3=C(CCCC3=O)Oc3c2c(=O)oc2ccccc32)c1 (stereo not drawn)	42.8	> 100	41.7	> 100	47	> 100	26.7	72.7
Cc1ccc(C2C3=C(CCCC3=O)Oc3c2c(=O)oc2ccccc32)cc1 (stereo not drawn)	49.2	> 100	38.8	> 100	74.2	> 100	8.5	78.9
O=C1CCCC2=C1C(c1ccccc1[N+](=O)[O-])c1c(c3ccccc3oc1=O)O2 (stereo not drawn)	28	59.5	18.1	> 100	> 100	> 100	14.9	54.8
O=C1CCCC2=C1C(c1cccc([N+](=O)[O-])c1)c1c(c3ccccc3oc1=O)O2 (stereo not drawn)	23.1	80.3	26.2	63.1	60.9	> 100	55.8	> 100
O=C1CCCC2=C1C(c1ccc([N+](=O)[O-])cc1)c1c(c3ccccc3oc1=O)O2 (stereo not drawn)	26	61.7	> 100	> 100	32.6	75.7	47.7	> 100
O=C1CCCC2=C1C(c1ccccc1Br)c1c(c3ccccc3oc1=O)O2 (stereo not drawn)	> 100	> 100	> 100	> 100	> 100	> 100	> 100	> 100
COc1cccc2c1C(=O)c1c(O)c3c(c(O)c1C2=O)C[C@@](O)(C(=O)CO)C[C@@H]3O[C@H]1C[C@H](N)[C@H](O)[C@H](C)O1 [DOXORUBICIN]	0.051	0.211	0.015	0.053	0.03	0.13	0.012	0.039
